From patent US4204879A, “Amino acid salts of anionic dyestuffs which have high solubility in organic solvents” (Williams (Hounslow) Limited, priority 1976, dated 1980) come the findings set out here.

This data set can be described thus: Maximum concentration of dye giving a solution stable for 24 hours at room temperature (Tables 2 and 3). The data set is classed as physicochemical. The procedure: The solubility values given in these Tables are the maximum concentration of dye in grams/liter giving a solution stable for 24 hours at room temperature.
The mark [1] stands for this setting: Table 2, 24 hours, room temperature, salts of 1:2 chromium complex of 2-amino-4-nitrophenol→3-methyl-1-phenyl-5-pyrazolone.

Turning to aniline, under setting [1], the “Solubility in Acetone” value amounted to 25 g.1^-1 and the “Solubility in Ethyl Acetate” value was under 5 g.1^-1.
For N-phenylglycine, for the setting “acetone, 24 h”, the “Solubility in Acetone” value is recorded as over 100 g.1^-1. The “Solubility in Ethanol” value (24 h) is on record as 50 g.1^-1. The “Solubility in Ethyl Acetate” value (ethyl acetate, 24 h) is on record as 100 g.1^-1.
On to iso-tridecylamine, for which the “Solubility in Acetone” value (acetone, 24 h) is over 500 g.1^-1. The “Solubility in Ethanol” value (24 h) turned out to be 200 g.1^-1. Further, for the setting “ethyl acetate, 24 h”, the “Solubility in Ethyl Acetate” value is under 50 g.1^-1.
For 2-ethylhexylamine the same measures were over 100 g.1^-1, 30 g.1^-1 and under 5 g.1^-1.
